The values below come from ChEMBL document CHEMBL1201862, “PubChem BioAssay data set” (2004).

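Method: 48-hour compound exposure of cells in 96-well plates, five concentrations, linear interpolation of endpoints. At the GI50, growth is halved.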 Active and inactive are the calls of the source. Cut-off read from the data, not from the text of the source: active = GI50 up to about 1.1 µM and inactive = higher.

Among the test systems are A498; CCRF-CEM; HCT-15; HOP-62; IGROV-1; K562; MOLT-4; Malme-3M; NCI-H226; NCI-H23; OVCAR-8; RPMI-8226; SF-295; SK-MEL-5; SNB-19; U-251; UO-31; ACHN; TK-10; M14.
What all share (assay): growth of human tumour cells (NCI), 48 h

Regarding `CN(C)CCSc1nccc(-c2ccc(-c3ccnc(SCCN(C)C)n3)s2)n1`, the GI50 is 15.1 µM (inactive) with A498; 1.43 µM (inactive) in the assay with CCRF-CEM; 4.65 µM with HCT-15; 15.9 µM (inactive) with HOP-62; 12.6 µM (inactive) with IGROV-1; 6.08 µM (inactive) in the assay with K562. Moreover, the GI50 was 0.76 µM (active) in the assay with MOLT-4; 11.9 µM (inactive) in the assay on Malme-3M; 12.9 µM (inactive) with NCI-H226; 11.2 µM (inactive) in the assay on NCI-H23; 6.1 µM (inactive) in the assay on OVCAR-8; 2.69 µM (inactive) with RPMI-8226. The GI50 was 10.7 µM (inactive) in the assay on SF-295; 15.9 µM (inactive) in the assay on SK-MEL-5; 11.1 µM (inactive) in the assay with SNB-19; 12.9 µM (inactive) in the assay with U-251; 4.94 µM (inactive) in the assay with UO-31.

Turning to `O=C1OC(c2ccc(Cl)cc2)(c2ccc(Cl)cc2)c2c1ccc1ccccc21`, the GI50 in the assay on A498 is > 100 µM (inactive); in the assay on ACHN it was > 100 µM (inactive); in the assay on CCRF-CEM it was > 100 µM (inactive); in the assay with HCT-15 it was over 100 µM; in the assay on IGROV-1, > 100 µM (inactive); in the assay with K562 it was 54.5 µM (inactive). Also, the GI50 was 39.4 µM (inactive) in the assay with MOLT-4; > 100 µM (inactive) in the assay with Malme-3M; 71.4 µM (inactive) with NCI-H226; 8.67 µM (inactive) in the assay with NCI-H23; > 100 µM (inactive) in the assay with OVCAR-8; 5.94 µM (inactive) in the assay on RPMI-8226. Also, the GI50 in the assay with SF-295 was > 100 µM (inactive); with SK-MEL-5, 52.5 µM (inactive); in the assay with SNB-19, > 100 µM (inactive); in the assay on TK-10 it was > 100 µM (inactive); in the assay with U-251 it was > 100 µM (inactive); in the assay with UO-31 it was 92.3 µM (inactive).

Turning to `COc1cc2c(cc1OC)C(Cl)C(c1cc(OC)c(OC)c(OC)c1)=C2Cl` (stereo not given), the GI50 in the assay with A498 is 22.3 µM (inactive); with ACHN it was 13.6 µM (inactive); in the assay on CCRF-CEM it was 4.67 µM (inactive); in the assay with HCT-15 it was 14.6 µM; in the assay with IGROV-1, 24 µM (inactive); with K562 it was 12.4 µM (inactive). The GI50 with M14 was 17.2 µM (inactive); in the assay on MOLT-4 it was 7.06 µM (inactive); with Malme-3M it was 14.1 µM (inactive); in the assay on NCI-H226, 18.7 µM (inactive); with NCI-H23, 19.3 µM (inactive); with OVCAR-8 it was 17.5 µM (inactive). In addition, the GI50 with RPMI-8226 is 8.71 µM (inactive); in the assay on SF-295, 15.2 µM (inactive); with SK-MEL-5, 15.6 µM (inactive); with SNB-19, 14.3 µM (inactive); in the assay on TK-10 it was 20.3 µM (inactive); with U-251 it was 16.4 µM (inactive). Further, in the assay on UO-31, the GI50 is 11 µM (inactive).

With `CCOC(=O)c1nc2cc(C(F)(F)F)ccc2nc1Oc1ccc(F)cc1`, the GI50 was > 100 µM (inactive) in the assay on A498; > 100 µM (inactive) with ACHN; > 100 µM (inactive) with CCRF-CEM; over 100 µM in the assay with HCT-15; > 100 µM (inactive) in the assay on IGROV-1; > 100 µM (inactive) in the assay on K562. In addition, the GI50 with M14, in the assay on MOLT-4, with Malme-3M, in the assay with NCI-H226, in the assay on OVCAR-8 and with RPMI-8226 was > 100 µM (inactive) in each case. Further, the GI50 with SF-295 was > 100 µM (inactive); with SK-MEL-5, > 100 µM (inactive); in the assay on SNB-19, > 100 µM (inactive); with TK-10, > 100 µM (inactive); in the assay on U-251, > 100 µM (inactive); with UO-31, 61.5 µM (inactive).

As for `NC1(C(=O)O)CCc2ccc(N(CCCl)CCCl)cc2C1` (stereo not given), the GI50 with A498 was > 100 µM (inactive); with CCRF-CEM, 5.32 µM (inactive); in the assay with HCT-15, over 100 µM; in the assay on HOP-62, 22.4 µM (inactive); in the assay with IGROV-1, > 100 µM (inactive); in the assay on K562, > 100 µM (inactive). In addition, the GI50 was 4.74 µM (inactive) in the assay on MOLT-4; 1 µM (active) in the assay on Malme-3M; > 100 µM (inactive) with NCI-H226; > 100 µM (inactive) in the assay on NCI-H23; > 100 µM (inactive) in the assay with OVCAR-8; 84.3 µM (inactive) in the assay with RPMI-8226. In addition, the GI50 with SF-295 is 29.6 µM (inactive); with SK-MEL-5 it was 57.3 µM (inactive); in the assay on SNB-19, > 100 µM (inactive); with U-251, 23.8 µM (inactive); with UO-31, > 100 µM (inactive).

On to `Cc1ccc([N+](=O)[O-])cc1/N=N/C(=O)NNc1cc([N+](=O)[O-])ccc1C`, for which the GI50 in the assay with A498 was 21.4 µM (inactive); in the assay on CCRF-CEM, 10 µM (inactive); in the assay with HCT-15 it was 21.7 µM; with HOP-62, 26.4 µM (inactive); in the assay on IGROV-1 it was > 10 µM (inactive); in the assay on K562 it was 19.7 µM (inactive). For the same molecule, the GI50 in the assay with M14 was 18.9 µM (inactive); in the assay on MOLT-4 it was 9.29 µM (inactive); in the assay on Malme-3M, 37.6 µM (inactive); in the assay on NCI-H226 it was > 10 µM (inactive); in the assay on NCI-H23 it was 48.9 µM (inactive); with OVCAR-8 it was 27 µM (inactive). Further, the GI50 was 30.4 µM (inactive) with RPMI-8226; 17.9 µM (inactive) in the assay on SF-295; 17.8 µM (inactive) in the assay with SK-MEL-5; 41.9 µM (inactive) with SNB-19; 32.9 µM (inactive) with U-251; 23.6 µM (inactive) in the assay on UO-31.

Consider `COC(=O)c1cccc(C(=O)OC)c1`, for which the GI50 was > 100 µM (inactive) in the assay on A498; > 100 µM (inactive) in the assay on ACHN; > 100 µM (inactive) with CCRF-CEM; over 100 µM in the assay with HCT-15; > 100 µM (inactive) with HOP-62; > 100 µM (inactive) in the assay on M14. The GI50 in the assay on MOLT-4, in the assay with Malme-3M, in the assay on NCI-H226, in the assay with NCI-H23, with RPMI-8226 and with SF-295 was > 100 µM (inactive) in each case. The GI50 in the assay on SNB-19, in the assay on TK-10 and in the assay on U-251 was > 100 µM (inactive) in each case.

Regarding `CO/C(=N/N1CC1C(F)(F)F)c1ccncc1` (stereo not given), the GI50 in the assay on A498 was > 100 µM (inactive); in the assay on CCRF-CEM, 88.1 µM (inactive); with HCT-15 it was over 100 µM; with HOP-62, > 100 µM (inactive); with IGROV-1, > 100 µM (inactive); in the assay on K562, > 100 µM (inactive). Also, the GI50 in the assay with M14 is > 100 µM (inactive); in the assay on MOLT-4, 30.8 µM (inactive); with Malme-3M, > 100 µM (inactive); in the assay with NCI-H226, > 100 µM (inactive); in the assay on NCI-H23, > 100 µM (inactive); in the assay on OVCAR-8, > 100 µM (inactive). Moreover, the GI50 in the assay on RPMI-8226 is > 100 µM (inactive); in the assay on SF-295 it was > 100 µM (inactive); in the assay on SK-MEL-5 it was > 100 µM (inactive); in the assay with SNB-19, > 100 µM (inactive); in the assay with U-251, > 100 µM (inactive); in the assay on UO-31 it was 46.8 µM (inactive).
